Values quoted from earlier work in paper PMC11187573, “Identification of SARS-CoV-2 Mpro inhibitors through deep reinforcement learning for de novo drug design and computational chemistry approaches” (RSC Medicinal Chemistry, 2024).
Where two headings read alike, the source gives them in different places.

Test system: Mpro
Conditions: ML dataset, cited from earlier work
[1] = Origin COVID_Moonshot, ref COVID Moonshot

Structure (SMILES)	IC50 [1] [µM]	IC50 (Origin ChEMBL, ref ChEMBL) [µM]
CC(C)(C)c1ccc(N(C(=O)c2cnco2)C(C(=O)NCCc2cccc(F)c2)c2cccnc2)cc1 (centres unmarked) [ALP-POS-305f6ec3-49]	4.78	
CC(C)(C)c1ccc(N(C(=O)c2c[nH]c(=O)[nH]2)C(C(=O)NCCc2cccc(F)c2)c2cccnc2)cc1 (centres unmarked) [ALP-POS-305f6ec3-52]	15.9	
Cn1cnc(C(=O)N(c2ccc(C(C)(C)C)cc2)C(C(=O)NCCc2cccc(F)c2)c2cccnc2)n1 (centres unmarked) [ALP-POS-305f6ec3-55]	74.2	
CC(C)(C)c1ccc(N(C(=O)c2cc(=O)[nH][nH]2)C(C(=O)NCCc2cccc(F)c2)c2cccnc2)cc1 (centres unmarked) [ALP-POS-305f6ec3-59]	39.7	
O=C(Nc1cncc2ccccc12)C1CCOc2c1ccc(Cl)c2Cl (centres unmarked) [ALP-POS-869ac754-2]	3.31	
O=C(Nn1nnc2ccccc21)C(Cc1cccc(Cl)c1)c1ccc(N2CCCCC2=O)cc1 (centres unmarked) [ALP-POS-a3de0cb1-13]	66.4	
O=C1CCCCN1c1ccc(N(Cc2ccccc2)C(=O)Cc2n[nH]c3ccccc23)cc1 [ALP-POS-a3de0cb1-16]	39.4	
O=C(NCCc1cccc(F)c1)C(c1cccnc1)N(C(=O)c1ccco1)c1ccc(C2CCCC2)cc1 (centres unmarked) [ALP-POS-b0bc6a46-5]	0.282	
O=C(NCCc1cccc(F)c1)C(c1cccnc1)N(Cc1ccccc1C1CCC1)C(=O)c1ccco1 (centres unmarked) [ALP-POS-b0bc6a46-10]	1.93	
CC(C)(C)c1cnc(N(C(=O)c2ccco2)C(C(=O)NCCc2cccc(F)c2)c2cccnc2)s1 (centres unmarked) [ALP-POS-b0bc6a46-12]	3.94	
CSc1ccc(CN(C(=O)c2ccco2)C(C(=O)NCCc2cccc(F)c2)c2cccnc2)cc1C#N (centres unmarked) [ALP-POS-b0bc6a46-20]	54.9	
COc1ccc(N(C(=O)c2ccco2)C(C(=O)NCCc2cccc(F)c2)c2cccnc2)cc1 (centres unmarked) [ALP-POS-b0bc6a46-22]	30.5	
N#Cc1ccc(N(C(=O)c2ccco2)C(C(=O)NCCc2cccc(F)c2)c2cccnc2)cc1 (centres unmarked) [ALP-POS-b0bc6a46-24]	10.4	
O=C(NCCc1cccc(F)c1)C(c1cccnc1)N(C(=O)c1ccco1)C1CCN(c2ccccc2)CC1 (centres unmarked) [ALP-POS-b0bc6a46-28]	79.6	
COc1ccc2nnn(CC(=O)N(Cc3ccccn3)c3ccc(C4CCNCC4)cc3)c2c1 [ALP-POS-c0c213c9-1]	35.5	
CC(C)(C(N)=O)c1ccc(N(Cc2ccsc2)C(=O)Cn2nnc3ccccc32)cc1 [ALP-POS-c0c213c9-6]	3.17	
Cc1ccc(N(Cc2cscn2)C(=O)Cc2cncc3ccccc23)cc1 [ALP-POS-c3a96089-1]	10.9	
CNc1ccc(N(Cc2ccsc2)C(=O)Cn2nnc3ccccc32)cc1 [ALP-POS-c59291d4-4]	11.5	
O=C(Nc1cncc2ccccc12)C1CCOc2c(O)cc(Cl)cc21 (centres unmarked) [ALP-POS-ce760d3f-1]	0.579	
CN1C(=O)CCc2cc(N(C(=O)c3cocn3)C(C(=O)NCCc3cccc(F)c3)c3cccnc3)ccc21 (centres unmarked) [ALP-POS-ced8ea4d-1]	63.5	
CC(C)S(=O)(=O)c1ccc(N(C(=O)c2cocn2)C(C(=O)NCCc2cccc(F)c2)c2cccnc2)cc1 (centres unmarked) [ALP-POS-ced8ea4d-5]	66.1	
Cn1ncc2cc(N(C(=O)c3cocn3)C(C(=O)NCCc3cccc(F)c3)c3cccnc3)ccc21 (centres unmarked) [ALP-POS-ced8ea4d-8]	48	
CS(=O)(=O)c1ccc(N(C(=O)c2cocn2)C(C(=O)NCCc2cccc(F)c2)c2cccnc2)cc1 (centres unmarked) [ALP-POS-ced8ea4d-9]	75.9	
CS(=O)(=O)Cc1ccc(N(C(=O)c2cocn2)C(C(=O)NCCc2cccc(F)c2)c2cccnc2)cc1 (centres unmarked) [ALP-POS-ced8ea4d-11]	27.7	

Structure (SMILES)	IC50 [1] [µM]	IC50 (Origin ChEMBL, ref ChEMBL) [µM]
CC(C)Oc1ccc(N(C(=O)c2cocn2)C(C(=O)NCCc2cccc(F)c2)c2cccnc2)cc1 (centres unmarked) [ALP-POS-ced8ea4d-12]	0.609	
O=C(NCCc1cccc(F)c1)C(c1cccnc1)N(C(=O)c1cocn1)c1ccc(Cn2cccn2)cc1 (centres unmarked) [ALP-POS-ced8ea4d-16]	8.34	
COc1ccc(N(C(=O)c2cocn2)C(C(=O)NCCc2cccc(F)c2)c2cccnc2)cc1 (centres unmarked) [ALP-POS-ced8ea4d-19]	22.2	
Cn1ccc2cc(N(C(=O)c3cocn3)C(C(=O)NCCc3cccc(F)c3)c3cccnc3)ccc21 (centres unmarked) [ALP-POS-ced8ea4d-20]	23.8	
O=C(NCCc1cccc(F)c1)C(c1cccnc1)N(C(=O)c1cocn1)c1ccc2ncsc2c1 (centres unmarked) [ALP-POS-ced8ea4d-24]	60.5	
Cc1ccc(N(C(=O)c2cocn2)C(C(=O)NCCc2cccc(F)c2)c2cccnc2)cc1 (centres unmarked) [ALP-POS-ced8ea4d-27]	50.2	
O=C(NCCc1cccc(F)c1)C(c1cccnc1)N(C(=O)c1cocn1)c1ccccc1 (centres unmarked) [ALP-POS-ced8ea4d-28]	89.2	
O=C(NCCc1cccc(F)c1)C(c1cccnc1)N(C(=O)c1cocn1)c1ccc(OC2CCOC2)cc1 (centres unmarked) [ALP-POS-ced8ea4d-32]	6.32	
O=C(NCCc1cccc(F)c1)C(c1cccnc1)N(C(=O)c1cocn1)c1cn(Cc2ccccc2)cn1 (centres unmarked) [ALP-POS-ced8ea4d-35]	27.3	
O=C(NCCc1cccc(F)c1)C(c1cccnc1)N(C(=O)c1cocn1)c1ccc2scnc2c1 (centres unmarked) [ALP-POS-ced8ea4d-36]	84	
O=C(NCCc1cccc(F)c1)C(c1cccnc1)N(C(=O)c1cocn1)c1ccc(C(F)(F)F)nc1 (centres unmarked) [ALP-POS-ced8ea4d-37]	36.4	
O=C(NCCc1cccc(F)c1)C(c1cccnc1)N(C(=O)c1cocn1)c1cnc(C2CCC2)nc1 (centres unmarked) [ALP-POS-ced8ea4d-63]	69.1	
CCOc1ccc(N(C(=O)c2cocn2)C(C(=O)NCCc2cccc(F)c2)c2cccnc2)cc1 (centres unmarked) [ALP-POS-ced8ea4d-67]	15.5	
Cc1ccncc1C(C(=O)NCCc1cccc(F)c1)N(C(=O)c1cocn1)c1ccc(C(C)(C)C)cc1 (centres unmarked) [ALP-POS-d0876c20-1]	0.653	
CC(C)(C)c1ccc(N(C(=O)c2cocn2)C(C(=O)NCCc2cccc(F)c2)c2ccnnc2)cc1 (centres unmarked) [ALP-POS-d0876c20-5]	2.05	
COc1nccnc1C(C(=O)NCCc1cccc(F)c1)N(C(=O)c1cocn1)c1ccc(C(C)(C)C)cc1 (centres unmarked) [ALP-POS-d0876c20-15]	94.9	
CC(C)(C)c1ccc(N(C(=O)c2cocn2)C(C(=O)NCCc2cccc(F)c2)c2cncnc2)cc1 (centres unmarked) [ALP-POS-d0876c20-17]	2.92	
COc1ncncc1C(C(=O)NCCc1cccc(F)c1)N(C(=O)c1cocn1)c1ccc(C(C)(C)C)cc1 (centres unmarked) [ALP-POS-d0876c20-19]	8.43	
CC(C)(C)c1ccc(N(C(=O)c2cocn2)C(C(=O)NCCc2cccc(F)c2)c2cnccn2)cc1 (centres unmarked) [ALP-POS-d0876c20-21]	1.21	
CN(C)c1ccc(N(Cc2ccsc2)C(=O)Cn2nnc3ccccc32)cc1 [ALP-POS-d2866bdf-1]	3.58	
O=C(NCCc1cccc(F)c1)C(c1cccnc1)N(C(=O)c1cnc[nH]1)c1ccc(OC2CCOC2)cc1 (centres unmarked) [ALP-POS-e980f4ea-32]	25.8	
O=C(COc1cccc(Cl)c1)Nc1cncc2ccccc12 [ALP-POS-f13221e1-2]	8.59	
O=C(CC1(C(=O)Nc2cncc3ccccc23)CCOc2ccc(Cl)cc21)N1CCN(CC(F)(F)CO)CC1 (centres unmarked) [ALP-UNI-8e43a71e-10]	7.28	
O=C(Nc1cncc2ccccc12)C1CCNc2cc(Cl)c(Cl)cc21 (centres unmarked) [ALP-UNI-3735e77e-4]	0.154	

Structure (SMILES)	IC50 [1] [µM]	IC50 (Origin ChEMBL, ref ChEMBL) [µM]
O=C(Nc1cncc2ccccc12)C1CCN(Cc2cnc[nH]2)c2ccc(Cl)cc21 (centres unmarked) [ALP-UNI-b33a865d-1]	1.12	
Cn1nncc1CC(=O)NC(c1ccccc1)c1nc2ccccc2n1C (centres unmarked) [BAR-COM-4e090d3a-6]	35.7	
O=C(c1cc(=O)[nH]c2ccccc12)N1CCN(Cc2ccccc2)CC1 [BEN-DND-7e92b6ca-10]	13.8	
COc1cccc(N2CCN(C(=O)c3cc(=O)[nH]c4ccccc34)CC2)c1 [BEN-DND-7e92b6ca-12]	13.6	
COc1ccccc1N1CCN(C(=O)c2cc(=O)[nH]c3ccccc23)CC1 [BEN-DND-7e92b6ca-13]	32.8	
O=C(c1cc(=O)[nH]c2ccccc12)N1CCN(c2ccc(F)cc2)CC1 [BEN-DND-7e92b6ca-14]	34.6	
O=C(Nc1cncc2ccccc12)N1CCOc2ccc(Cl)cc21 [BEN-DND-f2e727cd-1]	11.4	
O=C(NCCc1cccc(F)c1)C(c1cccnc1)N(C(=O)c1c[nH]cn1)c1ccc(OC(F)F)cc1 (centres unmarked) [BRU-THA-92256091-16]	22.1	
COc1ccc(N(C(=O)c2c[nH]cn2)C(C(=O)NCCc2cccc(F)c2)c2cccnc2)cc1 (centres unmarked) [BRU-THA-92256091-19]	93.7	
CS(=O)(=O)Cc1ccc(N(C(=O)c2c[nH]cn2)C(C(=O)NCCc2cccc(F)c2)c2cccnc2)cc1 (centres unmarked) [BRU-THA-92256091-20]	41.1	
COCc1ccc(N(C(=O)c2c[nH]cn2)C(C(=O)NCCc2cccc(F)c2)c2cccnc2)cc1 (centres unmarked) [BRU-THA-92256091-23]	62.9	
O=C(NCCc1cccc(F)c1)C(c1cccnc1)N(C(=O)c1c[nH]cn1)c1ccc(C2COC2)cc1 (centres unmarked) [BRU-THA-92256091-80]	22.7	
O=C(NCCc1cccc(F)c1)C(c1cccnc1)N(C(=O)c1c[nH]cn1)c1ccc(Cn2cccn2)cc1 (centres unmarked) [BRU-THA-92256091-86]	35.5	
C[C@H]1COc2c(N3CCN(C)CC3)c(F)cc3c(=O)c(C(=O)O)cn1c23 [CHEMBL33]		7.6
O=C(O)c1ccc(S(=O)(=O)c2cc(Br)c(O)c(Br)c2)cc1 [CHEMBL212240]		16
Nc1ncc(S(=O)(=O)c2ccc(Cl)cc2)c(N)n1 [CHEMBL213581]		6
O=S(=O)(Cc1[nH]c(-c2ccc(Cl)s2)c[s+]1)c1cccs1 [CHEMBL215733]		18
O=C(Oc1cncc(Br)c1)c1ccco1 [CHEMBL222234, O=C(c1ccco1)Oc1cc(Br)cnc1, reference compound]		0.05
O=C(Oc1cncc(Cl)c1)c1cscn1 [CHEMBL222628, O=C(c1cscn1)Oc1cc(Cl)cnc1, reference compound]		0.27
O=C(Oc1cncc(Cl)c1)c1ccc(-c2ccc(Cl)cc2)o1 [CHEMBL222769, O=C(c1ccc(-c(cc2)ccc2Cl)o1)Oc1cc(Cl)cnc1, reference compound]		0.063
O=C(Oc1cncc(Cl)c1)c1ccco1 [CHEMBL222840, O=C(c1ccco1)Oc1cc(Cl)cnc1, reference compound]		0.06
O=C(Oc1cncc(Cl)c1)c1cc2ccccc2s1 [CHEMBL222893, O=C(c1cc(cccc2)c2s1)Oc1cc(Cl)cnc1, reference compound]		0.095
O=C(Oc1cncc(Cl)c1)c1cc2ccccc2[nH]1 [CHEMBL225515, O=C(c1cc(cccc2)c2[nH]1)Oc1cc(Cl)cnc1, reference compound]		0.065
